SMILES strings stand for the structures.

As usually defined, the mortality is the percentage killed.

The experiment deals with Plutella xylostella. In words: whole plant or invertebrate. Type of experiment: in vivo. Conditions: foliar, cabbage leaf dip, second instar larvae, dead and moribund combined, 72 h after release. The method, then: Test Solutions were Prepared According to the Procedure Described Herein Below (500 PPM):
• 1. Eppendorf Vortex mixer (ThermoMixer C) and 1.5 mL Eppendorf tubes • 2. Zirconia (Zirconium-Yttrium) beads having diameter of 0.8 to 1.0 mm • 3. Microscope • 4. Beaker 100 mL • 5. Micro-pipette Reagents: • 1. Surfactant Solution • 2. De-mineralized (DM) Water • 1. Weigh 10 mg of the compound of the present invention to be tested in an Eppendorf Tube. • 2. Add 200 mg of the Surfactant Solution into the tube. • 3. Add 600 mg of Zirconia beads into the above mixture. • 4. Fix the tube in Eppendorf Vortex mixer and start vortexing at 2000 rpm. • 5. Mix on Vortex mixer for 30 minutes. After 30 minutes, observe the sample over a microscope at 400× resolution. • 6. If the Maximum particle size is more than 5 μm or average particle size is more than 2 μm or the particle size distribution is uneven, continue vortexing for another 30 minutes and again check the particle size using the microscope. Continue till the average particle size is below 2 microns. • 7. When the required particle size is achieved, add 1.0 mL DM water into the tube, close the cap, shake the tube thoroughly and transfer the contents, along with the beads, into a beaker. • 8. To rinse the tube, add another 1.0 mL of DM water into the tube, close the cap, shake well and transfer this into the same beaker. • 9. Repeat Step no. 8 one more time so that the tube is rinsed well and the compound of the present invention to be tested is transferred to the beaker. • 10. Add 16.8 mL of DM water into the beaker and stir well. • 11. The homogeneous dispersion can then be decanted into a glass vial, immediately, to separate the Zirconia beads. • 12. Immediately use this sample for biological testing. • 13. Further dilutions can be prepared by taking appropriate quantity of the aliquot of Step 10, immediately after stirring, and diluting as per requirement. The sample solution must be well mixed just before biological testing.
Leaf dip method was used for screening, wherein the required quantity of the compounds were weighed and dissolved in the test solution into the tube and vortex at 2000 rpm with Zirconia beads for 90 min for proper mixing, then mixed with 0.01% Triton-X solution to get the desired test concentration. Cabbage leaves were dipped in the solution for 10 seconds, shade dried for 20 min and then transferred to bioassay trays. Single second instar larva was released into each cell and the tray was covered with lid. The bio-assay trays were kept under laboratory conditions at a temperature of 25° C. and relative humidity of 70%. Observations on dead, moribund and live larvae were recorded at 72 h after the release. Percent mortality was calculated by combining dead and moribund larvae. The following compound num.
On to `COc1cc(C(=O)Nc2c(Br)cc3ccnn3c2C(=O)NC2(C)CC2)n(-c2ncccc2Cl)n1` [Compound 223, 5-bromo-6-(1-(3-chloropyridin-2-yl)-3-methoxy-1H-pyrazole-5-carboxamido)-N-(1-methylcyclopropyl)pyrazolo[1,5-a]pyridine-7-carboxamide], for which the mortality at 300 ppm was over 70%.

Turning to `CONC(=O)c1c(NC(=O)c2cc(OC)nn2-c2ncccc2Cl)c(Cl)cc2ccnn12` [Compound 150, 5-chloro-6-(1-(3-chloropyridin-2-yl)-3-methoxy-1H-pyrazole-5-carboxamido)-N-methoxypyrazolo[1,5-a]pyridine-7-carboxamide], the mortality at 300 ppm is over 70%.

As to `COc1cc(C(=O)Nc2c(C)cc3ccnn3c2C(N)=O)n(-c2ncccc2Cl)n1` [Compound 111, 6-(1-(3-chloropyridin-2-yl)-3-methoxy-1H-pyrazole-5-carboxamido)-5-methylpyrazolo[1,5-a]pyridine-7-carboxamide], the mortality at 300 ppm is over 70%.

In the case of `COc1cc(C(=O)Nc2c(C)cc3ccnn3c2C(=O)NOC(C)C)n(-c2ncccc2Cl)n1` [Compound 113, 6-(1-(3-chloropyridin-2-yl)-3-methoxy-1H-pyrazole-5-carboxamido)-N-isopropoxy-5-methylpyrazolo[1,5-a]pyridine-7-carboxamide], the mortality at 300 ppm is over 70%.

Turning to `CONC(=O)c1c(NC(=O)c2cc(Br)nn2-c2ncccc2Cl)ccc2ccnn12` [Compound 163, 6-(3-bromo-1-(3-chloropyridin-2-yl)-1H-pyrazole-5-carboxamido)-N-methoxypyrazolo[1,5-a]pyridine-7-carboxamide], the mortality at 300 ppm was over 70%.

In the case of `Cc1cc2ccnn2c(C(=O)NOC(C)C)c1NC(=O)c1cc(Br)nn1-c1ncccc1Cl` [Compound 105, 6-(3-bromo-1-(3-chloropyridin-2-yl)-1H-pyrazole-5-carboxamido)-N-isopropoxy-5-methylpyrazolo[1,5-a]pyridine-7-carboxamide], the mortality at 300 ppm was over 70%.

In the case of `Cc1cc2ccnn2c(C(=O)NCC2CC2)c1NC(=O)c1cc(Oc2cc(C(F)(F)F)nn2C)nn1-c1ncccc1Cl` [Compound 80, 6-(1-(3-chloropyridin-2-yl)-3-((1-methyl-3-(trifluoromethyl)-1H-pyrazol-5-yl)oxy)-1H-pyrazole-5-carboxamido)-N-(cyclopropylmethyl)-5-methylpyrazolo[1,5-a]pyridine-7-carboxamide], the mortality at 300 ppm was over 70%.

On to `COc1cc(C(=O)Nc2c(Cl)cc3ccnn3c2C(=O)NCC#N)n(-c2ncccc2Cl)n1` [Compound 149, 5-chloro-6-(1-(3-chloropyridin-2-yl)-3-methoxy-1H-pyrazole-5-carboxamido)-N-(cyanomethyl)pyrazolo[1,5-a]pyridine-7-carboxamide], for which the mortality at 300 ppm was over 70%.

Take `O=C(Nc1c(Br)cc2ccnn2c1C(=O)NC1CONC1=O)c1cc(C(F)(F)F)nn1-c1ncccc1Cl` (centres unmarked) [Compound 129, 5-bromo-6-(1-(3-chloropyridin-2-yl)-3-(trifluoromethyl)-1H-pyrazole-5-carboxamido)-N-(3-oxoisoxazolidin-4-yl)pyrazolo[1,5-a]pyridine-7-carboxamide]: the mortality at 300 ppm is over 70%.

On to `CCC(COC)NC(=O)c1c(NC(=O)c2cc(OC)nn2-c2ncccc2Cl)c(C)cc2ccnn12` (centres unmarked) [Compound 205, 6-(1-(3-chloropyridin-2-yl)-3-methoxy-1H-pyrazole-5-carboxamido)-N-(1-methoxybutan-2-yl)-5-methylpyrazolo[1,5-a]pyridine-7-carboxamide], for which the mortality at 300 ppm is over 70%.

As to `Cc1cc2ccnn2c(C(=O)NC2CC2)c1NC(=O)c1cc(Oc2cc(C(F)(F)F)nn2C)nn1-c1ncccc1Cl` [Compound 79, 6-(1-(3-chloropyridin-2-yl)-3-((1-methyl-3-(trifluoromethyl)-1H-pyrazol-5-yl)oxy)-1H-pyrazole-5-carboxamido)-N-cyclopropyl-5-methylpyrazolo[1,5-a]pyridine-7-carboxamide], the mortality at 300 ppm was over 70%.

On to `Cc1cc2ccnn2c(C(=O)N2CCC2)c1NC(=O)c1cc(Br)nn1-c1ncccc1Cl` [Compound 34, N-(7-(azetidine-1-carbonyl)-5-methylpyrazolo[1,5-a]pyridin-6-yl)-3-bromo-1-(3-chloropyridin-2-yl)-1H-pyrazole-5-carboxamide], for which the mortality at 300 ppm is over 70%.

In the case of `CCONC(=O)c1c(NC(=O)c2cc(OC)nn2-c2ncccc2Cl)c(C)cc2ccnn12` [Compound 112, 6-(1-(3-chloropyridin-2-yl)-3-methoxy-1H-pyrazole-5-carboxamido)-N-ethoxy-5-methylpyrazolo[1,5-a]pyridine-7-carboxamide], the mortality at 300 ppm was over 70%.

`COc1cc(C(=O)Nc2c(C)cc3ccnn3c2C(=O)N2CC(F)(F)C2)n(-c2ncccc2Cl)n1` [Compound 39, 1-(3-chloropyridin-2-yl)-N-(7-(3,3-difluoroazetidine-1-carbonyl)-5-methylpyrazolo[1,5-a]pyridin-6-yl)-3-methoxy-1H-pyrazole-5-carboxamide]: the mortality at 300 ppm is over 70%.

Take `C#CCNC(=O)c1c(NC(=O)c2cc(OCC(F)(F)F)nn2-c2ncccc2Cl)c(C)cc2ccnn12` [Compound 48, 6-(1-(3-chloropyridin-2-yl)-3-(2,2,2-trifluoroethoxy)-1H-pyrazole-5-carboxamido)-5-methyl-N-(prop-2-yn-1-yl)pyrazolo[1,5-a]pyridine-7-carboxamide]: the mortality at 300 ppm was over 70%.

For `CNC(=O)c1c(NC(=O)c2cc(Oc3cc(C(F)(F)F)nn3C)nn2-c2ncccc2Cl)c(C)cc2ccnn12` [Compound 69, 6-(1-(3-chloropyridin-2-yl)-3-((1-methyl-3-(trifluoromethyl)-1H-pyrazol-5-yl)oxy)-1H-pyrazole-5-carboxamido)-N,5-dimethylpyrazolo[1,5-a]pyridine-7-carboxamide], the mortality at 300 ppm was over 70%.

As for `CCNC(=O)c1c(NC(=O)c2cc(Oc3cc(C(F)(F)F)nn3C)nn2-c2ncccc2Cl)c(C)cc2ccnn12` [Compound 70, 6-(1-(3-chloropyridin-2-yl)-3-((1-methyl-3-(trifluoromethyl)-1H-pyrazol-5-yl)oxy)-1H-pyrazole-5-carboxamido)-N-ethyl-5-methylpyrazolo[1,5-a]pyridine-7-carboxamide], the mortality at 300 ppm was over 70%.

For `Cc1cc2ccnn2c(C(=O)NC2CS(=O)(=O)C2)c1NC(=O)c1cc(Br)nn1-c1ncccc1Cl` [Compound 208, 6-(3-bromo-1-(3-chloropyridin-2-yl)-1H-pyrazole-5-carboxamido)-N-(1,1-dioxidothietan-3-yl)-5-methylpyrazolo[1,5-a]pyridine-7-carboxamide], the mortality at 300 ppm was over 70%.

As for `COCCNC(=O)c1c(NC(=O)c2cc(Br)nn2-c2ncccc2Cl)c(Br)cc2ccnn12` [Compound 88, 5-bromo-6-(3-bromo-1-(3-chloropyridin-2-yl)-1H-pyrazole-5-carboxamido)-N-(2-methoxyethyl)pyrazolo[1,5-a]pyridine-7-carboxamide], the mortality at 300 ppm was over 70%.

In the case of `CCC(COC)NC(=O)c1c(NC(=O)c2cc(Br)nn2-c2ncccc2Cl)c(C)cc2ccnn12` (centres unmarked) [Compound 192, 6-(3-bromo-1-(3-chloropyridin-2-yl)-1H-pyrazole-5-carboxamido)-N-(1-methoxybutan-2-yl)-5-methylpyrazolo[1,5-a]pyridine-7-carboxamide], the mortality at 300 ppm was over 70%.

Consider `Cc1cc2ccnn2c(C(=O)N2CC(F)(F)C2)c1NC(=O)c1cc(Br)nn1-c1ncccc1Cl` [Compound 23, 3-bromo-1-(3-chloropyridin-2-yl)-N-(7-(3,3-difluoroazetidine-1-carbonyl)-5-methylpyrazolo[1,5-a]pyridin-6-yl)-1H-pyrazole-5-carboxamide], for which the mortality at 300 ppm was over 70%.

For the compound `CCCNC(=O)c1c(NC(=O)c2cc(OC3CSC3)nn2-c2ncccc2Cl)c(C)cc2ccnn12` [Compound 103, 6-(1-(3-chloropyridin-2-yl)-3-(thietan-3-yloxy)-1H-pyrazole-5-carboxamido)-5-methyl-N-propylpyrazolo[1,5-a]pyridine-7-carboxamide], the mortality at 300 ppm was over 70%.

On to `COc1cc(C(=O)Nc2c(C)cc3ccnn3c2C(=O)NC(C)C(C)C)n(-c2ncccc2Cl)n1` (centres unmarked) [Compound 212, 6-(1-(3-chloropyridin-2-yl)-3-methoxy-1H-pyrazole-5-carboxamido)-5-methyl-N-(3-methylbutan-2-yl)pyrazolo[1,5-a]pyridine-7-carboxamide], for which the mortality at 300 ppm is over 70%.
